Source: PMC12811658, “Design, Synthesis, and Structural Evolution of Pseudo‐Natural Product IDO1 Inhibitors and Degraders” (Angewandte Chemie (International Ed. in English), 2025)

How the values were obtained:
[1] = tested on: Kyn levels in BxPC3 cells (kynurenine generated by IDO1); assay: Cellular Kyn assay (automated Kyn screening assay); assay type: cell-based; conditions: Homo sapiens, BXPC-3, 48 h, IFN-γ, L-Trp and compounds 48 h, mean ± SD, read-out: IC50 (Kyn assay), reduction of kynurenine levels
[2] = target: T1, recombinant human IDO1 (Homo sapiens, UniProt P14902); assay: IDO1 enzymatic assay in vitro; assay type: biochemical; conditions: pre-incubation 37 °C 45 min
T1 construct: The GST-tag of IDO1 was removed to obtain untagged full-length IDO1l using PreScission protease; GST (N, cleaved yes); made in house; own inference

[3] = target: T2, IDO1 protein in IFN-γ stimulated HeLa cells (Homo sapiens, UniProt P14902); assay: IDO1 immunostaining (immunofluorescence); assay type: cell-based; conditions: 24 h
T2 construct: endogenous in cells; host or cells: HeLa (DSMZ), IFN-γ stimulated
Procedure: Figure 3 Comparison of IDO1 degradation efficiency for selected compounds. a) Detection of IDO1 levels using immunostaining. IFN‐γ stimulated HeLa cells were treated with the compounds for 24 h. IDO1 protein abundance was detected with IDO1 antibody. Data are mean values ± SD, n = 3. b) IDO1 protein levels in BxPC3 cells upon compounds treatment were detected using immunoblotting. BxPC3 cells were treated with IFN‐γ for 24 h prior to washout, followed by addition of compounds. Representative blot and quantified band intensities are shown (mean values ± SD, n = 3). See Figure S11a S12a for the uncropped blots. c) Key functions of hit compounds that influence degradation efficiency. d) Heatmap for IDO degradation efficiency. IDO1 levels were monitored as described in (c). See Table S1 for mean values and Figure S11b for the uncropped blots. e)–g) Dose dependent degradation of IDO1 protein in BxPC3 cells treated with iDeg‐7–9 and detected as described in (c). Representative data of n = 3 except for iDeg‐9 (n = 4). See Figure S12 S13 for the uncropped blots. h) Quantification of IDO1 protein levels from e‐g (mean values ± SD, n = 3 except for iDeg‐9 (n = 4). i) Tabulated inhibition and degradation ability of iDeg‐6–9. ND: not detected. j) Volcano plot of iDeg‐6‐induced changes on the global proteome. SKOV‐3 cells were treated with 10 µM iDeg‐6 or DMSO for 4 h followed by protein extraction, tryptic digest and LC‐MS/MS analysis (n = 4). Plot generated using UMSAP (T 0 = 0.5, S 0 = 0.5).
IFN-γ-stimulated Hela cells (5 ng/mL IFN-γ) were seeded in 96-well plates and incubated for 24 h. Subsequently, IFN-γ was washed out and cells were treated with compounds for additional 24 h. Cells were then washed once with PBS and fixed with 3.7% paraformaldehyde for 10 min at room temperature. Cells were washed three times with ice-cold PBS. […] Images were analyzed by SpectraMax Paradigm microplate reader (Molecular Devices) to extract IDO1 fluorescence intensity as well as the cell count. IDO1 fluorescence intensity was normalized to cell count. […]

[4] = target: IDO1 protein levels in BxPC3 cells (Homo sapiens, UniProt P14902); assay: IDO1 immunoblotting (degradation); assay type: cell-based; design: endogenous in cells; host or cells: BxPC3 (DSMZ), IFN-γ stimulated; conditions: BxPC3 cells, IFN-γ 24 h, washout, compounds 24 h
IDO1 protein levels in BxPC3 cells, sequence (P14902 whole entry): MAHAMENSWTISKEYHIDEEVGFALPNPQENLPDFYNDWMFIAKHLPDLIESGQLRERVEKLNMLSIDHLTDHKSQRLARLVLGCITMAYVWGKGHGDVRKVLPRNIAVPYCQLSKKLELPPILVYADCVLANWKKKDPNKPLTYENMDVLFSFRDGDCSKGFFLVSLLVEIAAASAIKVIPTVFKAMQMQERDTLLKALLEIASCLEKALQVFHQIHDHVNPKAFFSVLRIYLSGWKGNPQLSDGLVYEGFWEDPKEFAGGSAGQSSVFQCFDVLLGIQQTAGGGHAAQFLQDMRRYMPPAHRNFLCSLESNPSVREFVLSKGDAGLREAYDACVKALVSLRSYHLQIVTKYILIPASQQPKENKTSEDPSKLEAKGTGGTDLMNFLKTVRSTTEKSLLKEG

T1 sequence (P14902 whole entry): as above
T2 sequence (P14902 whole entry): as above

Structure (SMILES): Cc1ccc(NC(=O)OC[C@]23CN(S(=O)(=O)c4ccc(C(C)(C)C)cc4)C[C@H]2C[C@H]2C[C@@H]3C2(C)C)cc1 [10 (iDeg-1), ((3aS,4R,6R,7aS)-2-((4-(tert-butyl)phenyl)sulfonyl)-5,5-dimethyloctahydro-3aH-4,6-methanoisoindol-3a-yl)methyl p-tolylcarbamate]
- IC50 [1]: 830 ± 310 nM
- inhibition at 14 µM ([2]; at 14 µM, mean ± SD): < 25%
- IDO1 activity IC50 [µM] (in vitro assay) ([2]; determined if inhibition at 14 µM higher than 50%): – (Inactive: >75% Kyn level observed up to a concentration of 14 µM and no IC50 value obtained)
- IDO1 staining fluorescence intensity (in words) [3]: reduced the fluorescence intensity of the IDO1 staining
- IDO1 protein level by immunoblotting (in words) [4]: modulate IDO1 abundance
